# Results from patent publication US11938122B2, “5-[[4-[2-[5-(1-hydroxyethyl)pyridin-2-yl]ethoxy]phenyl]methyl]-1,3- thiazolidine-2,4-dione for treating nonalcoholic fatty liver disease” (Minoryx Therapeutics S.L., priority 2016, dated 2024).
# Tests used:
# Type in all cases: in vitro ADME
# CYP1A2 [1] = target: T1, CYP1A2 (Homo sapiens, UniProt P05177); assay: CYP inhibition, cocktail incubation, pooled human liver microsomes; details: reaction ACET
# T1 construct: in incubations with a pool of human liver microsomes; from tissue; host or cells: pooled human liver microsomes
# T1 sequence (P05177 1-516): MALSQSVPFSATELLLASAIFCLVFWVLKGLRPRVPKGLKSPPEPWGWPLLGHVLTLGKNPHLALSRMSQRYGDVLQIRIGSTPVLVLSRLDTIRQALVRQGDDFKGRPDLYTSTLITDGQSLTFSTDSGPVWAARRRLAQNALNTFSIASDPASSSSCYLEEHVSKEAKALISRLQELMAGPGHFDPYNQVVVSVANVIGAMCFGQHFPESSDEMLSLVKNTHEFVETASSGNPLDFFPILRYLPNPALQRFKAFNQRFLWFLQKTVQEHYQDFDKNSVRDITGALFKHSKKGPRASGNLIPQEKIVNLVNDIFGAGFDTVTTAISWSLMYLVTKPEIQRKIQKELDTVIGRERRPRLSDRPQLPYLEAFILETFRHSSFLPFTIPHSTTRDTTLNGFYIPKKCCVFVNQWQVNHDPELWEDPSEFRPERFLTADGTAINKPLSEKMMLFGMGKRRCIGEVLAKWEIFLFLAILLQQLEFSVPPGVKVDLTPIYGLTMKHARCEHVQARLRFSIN
# Description: (§1) Inhibition was screened using a cocktail incubation with CYP specific substrates for eight major drug metabolizing CYP enzymes (CYPs 1A2, 2A6, 2B6, 2C8, 2C9, 2C19, 2D6 and 3A4) in incubations with a pool of human liver microsomes. In reversible inhibition, MIN-102 was incubated with buffer, microsomes, cofactor NADPH and CYP-specific substrate cocktail mix for 15 min. In TDI study, buffer and microsomes were preincubated with MIN-102 in the presence and absence of cofactor NADPH for 0 or 30 min to elucidate the possible time-dependency of inhibition. Secondary incubation was conducted with CYP-specific substrate cocktail mix for 30 min. MIN-102 was used at final concentrations of 0.01, 0.1, 1, 10, and 100 μM in both assays.
# CYP2C8 = target: T2, CYP2C8 (Homo sapiens, UniProt P10632); assay: as above; details: reaction OH-REPA
# T2 construct: in incubations with a pool of human liver microsomes; from tissue; host or cells: pooled human liver microsomes
# T2 sequence (P10632 1-490): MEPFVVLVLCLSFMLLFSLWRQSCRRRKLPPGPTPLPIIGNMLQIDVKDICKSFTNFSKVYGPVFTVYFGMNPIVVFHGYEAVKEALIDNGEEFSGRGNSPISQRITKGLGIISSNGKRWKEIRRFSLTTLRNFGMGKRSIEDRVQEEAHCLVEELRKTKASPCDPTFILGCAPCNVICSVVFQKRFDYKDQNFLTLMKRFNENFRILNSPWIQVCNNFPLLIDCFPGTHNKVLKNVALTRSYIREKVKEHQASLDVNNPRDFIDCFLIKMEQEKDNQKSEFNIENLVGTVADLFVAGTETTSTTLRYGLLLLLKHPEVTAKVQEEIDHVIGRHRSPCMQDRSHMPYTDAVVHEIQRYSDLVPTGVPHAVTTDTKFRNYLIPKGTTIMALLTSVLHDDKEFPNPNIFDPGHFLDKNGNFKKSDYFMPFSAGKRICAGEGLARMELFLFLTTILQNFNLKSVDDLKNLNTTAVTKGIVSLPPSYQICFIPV
# Description: as §1
# CYP3A4 = target: T3, CYP3A4 (Homo sapiens, UniProt P08684); assay: as above
# T3 construct: in incubations with a pool of human liver microsomes; from tissue; host or cells: pooled human liver microsomes
# Description: as §1
# CYP2A6 = target: T4, CYP2A6 (Homo sapiens, UniProt P11509); assay: as above; details: reaction 7OH-COU
# T4 construct: in incubations with a pool of human liver microsomes; from tissue; host or cells: pooled human liver microsomes
# T4 sequence (P11509 1-494): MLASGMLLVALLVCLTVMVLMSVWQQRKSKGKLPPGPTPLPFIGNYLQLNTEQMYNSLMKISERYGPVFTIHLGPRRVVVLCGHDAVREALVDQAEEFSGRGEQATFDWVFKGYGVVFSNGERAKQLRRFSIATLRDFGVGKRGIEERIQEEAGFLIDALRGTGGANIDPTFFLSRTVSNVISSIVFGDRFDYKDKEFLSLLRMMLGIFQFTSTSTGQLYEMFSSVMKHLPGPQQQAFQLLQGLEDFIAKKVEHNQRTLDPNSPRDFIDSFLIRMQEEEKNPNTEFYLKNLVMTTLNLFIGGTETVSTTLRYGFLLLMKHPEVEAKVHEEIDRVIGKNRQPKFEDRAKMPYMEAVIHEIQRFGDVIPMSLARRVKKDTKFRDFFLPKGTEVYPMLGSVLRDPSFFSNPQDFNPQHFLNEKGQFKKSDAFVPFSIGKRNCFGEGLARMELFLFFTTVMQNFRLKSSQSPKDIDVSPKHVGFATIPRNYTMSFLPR
# Description: as §1
# CYP2C9 = target: T5, CYP2C9 (Homo sapiens, UniProt P11712); assay: as above; details: reaction OH-DICL
# T5 construct: in incubations with a pool of human liver microsomes; from tissue; host or cells: pooled human liver microsomes
# Description: as §1
# CYP2B6 = target: T6, CYP2B6 (Homo sapiens, UniProt P20813); assay: as above; details: reaction OH-BUP
# T6 construct: in incubations with a pool of human liver microsomes; from tissue; host or cells: pooled human liver microsomes
# T6 sequence (P20813 1-491): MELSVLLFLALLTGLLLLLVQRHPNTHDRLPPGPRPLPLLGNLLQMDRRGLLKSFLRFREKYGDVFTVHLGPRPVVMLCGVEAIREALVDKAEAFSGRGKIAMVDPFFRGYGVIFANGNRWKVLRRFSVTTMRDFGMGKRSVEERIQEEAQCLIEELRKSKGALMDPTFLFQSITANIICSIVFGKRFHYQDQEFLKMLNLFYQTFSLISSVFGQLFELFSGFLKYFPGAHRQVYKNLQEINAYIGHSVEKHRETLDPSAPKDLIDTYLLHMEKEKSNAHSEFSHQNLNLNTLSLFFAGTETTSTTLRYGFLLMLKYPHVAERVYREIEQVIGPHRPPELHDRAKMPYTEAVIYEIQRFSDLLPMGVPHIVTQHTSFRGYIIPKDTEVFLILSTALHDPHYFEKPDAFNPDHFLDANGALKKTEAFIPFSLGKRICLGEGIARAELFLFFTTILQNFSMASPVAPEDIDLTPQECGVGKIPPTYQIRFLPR
# Description: as §1
# CYP2D6 = target: T7, CYP2D6 (Homo sapiens, UniProt P10635); assay: as above; details: reaction O-dem-DEX
# T7 construct: in incubations with a pool of human liver microsomes; from tissue; host or cells: pooled human liver microsomes
# Description: as §1
# CYP2C19 = target: T8, CYP2C19 (Homo sapiens, UniProt P33261); assay: as above
# T8 construct: in incubations with a pool of human liver microsomes; from tissue; host or cells: pooled human liver microsomes
# Description: as §1
# CYP1A2 [2] = assay: CYP induction in cryopreserved human hepatocytes; details: 50 μM, hepatocytes from 3 human donors
# T3 sequence (P08684 whole entry): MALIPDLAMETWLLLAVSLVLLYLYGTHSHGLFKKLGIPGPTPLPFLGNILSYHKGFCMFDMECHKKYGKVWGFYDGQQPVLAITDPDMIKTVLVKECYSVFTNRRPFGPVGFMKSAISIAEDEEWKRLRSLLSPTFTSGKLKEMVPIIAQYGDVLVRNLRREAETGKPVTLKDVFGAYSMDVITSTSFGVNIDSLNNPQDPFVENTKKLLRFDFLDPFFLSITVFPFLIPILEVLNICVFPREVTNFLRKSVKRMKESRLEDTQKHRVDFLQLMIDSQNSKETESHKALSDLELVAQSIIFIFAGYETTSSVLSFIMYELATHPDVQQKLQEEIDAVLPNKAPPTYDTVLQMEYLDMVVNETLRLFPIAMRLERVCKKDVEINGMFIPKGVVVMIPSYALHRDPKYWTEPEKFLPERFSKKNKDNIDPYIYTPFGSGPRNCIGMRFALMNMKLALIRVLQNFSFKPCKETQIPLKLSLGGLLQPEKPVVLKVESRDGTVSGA
# T8 sequence (P33261 whole entry): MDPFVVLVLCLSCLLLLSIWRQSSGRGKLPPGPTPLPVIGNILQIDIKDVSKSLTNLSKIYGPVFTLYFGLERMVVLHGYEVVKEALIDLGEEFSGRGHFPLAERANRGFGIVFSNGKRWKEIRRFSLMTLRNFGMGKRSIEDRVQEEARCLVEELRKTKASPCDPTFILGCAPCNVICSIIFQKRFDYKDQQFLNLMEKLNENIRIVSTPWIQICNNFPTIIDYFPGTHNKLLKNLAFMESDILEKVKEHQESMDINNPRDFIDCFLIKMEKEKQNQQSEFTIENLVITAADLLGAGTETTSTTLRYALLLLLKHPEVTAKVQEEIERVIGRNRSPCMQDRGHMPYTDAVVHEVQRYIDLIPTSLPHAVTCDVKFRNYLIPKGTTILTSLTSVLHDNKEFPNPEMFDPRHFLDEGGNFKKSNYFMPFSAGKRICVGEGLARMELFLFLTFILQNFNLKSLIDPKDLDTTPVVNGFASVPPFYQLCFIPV
# T5 sequence (P11712 whole entry): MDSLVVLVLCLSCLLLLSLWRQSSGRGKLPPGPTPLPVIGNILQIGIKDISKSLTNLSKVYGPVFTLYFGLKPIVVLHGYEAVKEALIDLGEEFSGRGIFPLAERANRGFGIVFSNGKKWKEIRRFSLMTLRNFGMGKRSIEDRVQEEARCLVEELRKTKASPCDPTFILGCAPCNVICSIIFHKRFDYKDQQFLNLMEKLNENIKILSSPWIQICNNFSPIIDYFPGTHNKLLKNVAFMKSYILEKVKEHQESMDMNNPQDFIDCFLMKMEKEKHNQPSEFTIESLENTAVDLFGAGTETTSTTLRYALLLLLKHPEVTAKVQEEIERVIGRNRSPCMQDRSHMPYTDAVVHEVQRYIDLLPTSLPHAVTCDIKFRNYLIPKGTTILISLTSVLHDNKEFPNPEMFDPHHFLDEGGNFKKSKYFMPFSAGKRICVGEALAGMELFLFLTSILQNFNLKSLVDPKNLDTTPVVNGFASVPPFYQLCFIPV
# T7 sequence (P10635 whole entry): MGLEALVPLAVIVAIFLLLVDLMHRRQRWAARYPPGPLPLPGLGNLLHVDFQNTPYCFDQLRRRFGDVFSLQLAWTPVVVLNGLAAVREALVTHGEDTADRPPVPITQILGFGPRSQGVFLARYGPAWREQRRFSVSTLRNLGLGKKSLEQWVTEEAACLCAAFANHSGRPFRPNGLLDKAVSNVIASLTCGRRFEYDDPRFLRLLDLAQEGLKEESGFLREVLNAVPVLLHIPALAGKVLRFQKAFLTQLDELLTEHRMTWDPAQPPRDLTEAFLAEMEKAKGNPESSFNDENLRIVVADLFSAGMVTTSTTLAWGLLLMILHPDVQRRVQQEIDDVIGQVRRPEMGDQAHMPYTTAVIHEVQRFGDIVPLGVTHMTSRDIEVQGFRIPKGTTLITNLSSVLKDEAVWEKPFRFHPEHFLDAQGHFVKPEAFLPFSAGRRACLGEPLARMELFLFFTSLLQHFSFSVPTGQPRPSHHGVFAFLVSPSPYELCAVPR
structure (smiles),measurement,setting,value
"CC(O)c1ccc(CCOc2ccc(CC3SC(=O)NC3=O)cc2)nc1 (racemic) [MIN-102, 5-[[4-[2-[5-(1-hydroxyethyl)pyridin-2-yl]ethoxy]phenyl]methyl]-1,3-thiazolidine-2,4-dione]",IC50,CYP1A2 [1],> 100 µM
same,IC50,CYP2C8,102 µM
same,Ki,CYP2C8; read-out: Tentative Ki,84 µM
same,IC50,CYP3A4; reaction 1-OH-MDZ,> 100 µM
same,IC50,CYP3A4; reaction 3-OH-OME,> 100 µM
same,IC50,CYP3A4; reaction 6β-OH-TES,> 100 µM
same,IC50,CYP3A4; reaction SO-OME,> 100 µM
same,IC50,CYP2A6,> 100 µM
same,IC50,CYP2C9,103 µM
same,Ki,CYP2C9; read-out: Tentative Ki,52 µM
same,IC50,CYP2B6,> 100 µM
same,IC50,CYP2D6,> 100 µM
same,IC50,CYP2C19; reaction 5-OH-OME,> 100 µM
same,IC50,CYP2C19; reaction dem-OME,> 100 µM
same,increase in activity of CYP1A2 probe reaction,CYP1A2 [2],less than 20 % of the respective positive control induction
